Test results published in patent US10746738B2, “Claudin-1 peptide reagents and methods” (THE REGENTS OF THE UNIVERSITY OF MICHIGAN, priority 2015, dated 2020).

Legend:
[1] = tested on: SW620 cells; assay: Apparent dissociation constant by flow cytometry; assay type: binding, human; details: 0-200 nM, 1 h at 4° C., R^2=0.95
Method: The apparent dissociation constant of RTS*-Cy5.5 to SW620 cells was measured. SW620 cells were washed two times with PBS+0.5% BSA, then 1×10^5 cells were incubated with RTS*Cy5.5 at dilutions ranging from 0-200 nM for 1 h at 4° C. Cells were then washed of unbound peptide 5 times with PBS+0.5% BSA before analyzing via flow cytometry (FACS Canto, BD). Sample means were used to calculate the equilibrium dissociation constant, kd, via nonlinear regression analysis using GraphPad Prism software.
The apparent dissociation constant (kd) of the peptides to cells in vitro was determined. The fluorescently-labeled peptide was be serially diluted in PBS at concentrations that ranged from 0 to 200 nM in 25 nM increments. Cells were incubated with the peptide, and the mean fluorescence intensities was measured on flow cytometry. The equilibrium dissociation constant kd=1/ka was calculated by performing a least squares fit of the data to the non-linear equation I=(I0+Imaxka[X])/([…]). I0 and Imax are the initial and maximum fluorescence intensities, corresponding to no peptide and at saturation, respectively, and [X] represents the concentration of the bound peptide. This approach is illustrated with RTS*-Cy5.5 in FIG. 3B, where kd=42 nM.

[2] = tested on: SW620 cells; assay: Apparent association time constant by flow cytometry; assay type: binding, human; details: 5 μM, 4° C.
Method: To measure the apparent association time constant of RTS*-Cy5.5, SW620 cells were washed two times with PBS+0.5% BSA, then 1×10^5 cells were incubated with 5 μM RTS*Cy5.5 at 4° C. for different time intervals ranging from 2-15 min. The cells were immediately washed of unbound peptide several times with PBS+0.5% before analyzing via flow cytometry. The mean fluorescent intensity of SW620 cells at the various time points was ratioed with that of untreated cells and used to calculate the rate constant, k, by fitting the data to a first order kinetics model, y(t)=Imax[1−exp^(−kt)], using Origin 6.1 software.
To measure the apparent association time constant of RTS*-Cy5.5, SW620 cells were washed 2× with PBS+0.5% BSA, then ˜10^5 cells were incubated with 5 μM RTS*-Cy5.5 at 4° C. for time intervals ranging from 2-15 min. The cells were immediately washed of unbound peptide 5× with PBS+0.5% BSA before analyzing with flow cytometry. The mean fluorescence intensity of SW620 cells at the various time points was ratioed with that of untreated cells and used to calculate the rate constant k by fitting the data to a first order kinetics model, y(t)=Imax[1−exp^(−kt)], using Origin 6.1 software. An apparent association time constant k=0.83 min^−1 which corresponds to <1.2 min was measured.

[3] = molecular target: T1, claudin-1 (CLDN1) (Homo sapiens, UniProt O95832); assay: siRNA knockdown of CLDN1 expression, peptide and antibody binding to SW620 cells; assay type: cell-based
T1 construct: endogenous in cells; host or cells: SW620 human colorectal adenocarcinoma cells
T1 sequence (O95832 1-211): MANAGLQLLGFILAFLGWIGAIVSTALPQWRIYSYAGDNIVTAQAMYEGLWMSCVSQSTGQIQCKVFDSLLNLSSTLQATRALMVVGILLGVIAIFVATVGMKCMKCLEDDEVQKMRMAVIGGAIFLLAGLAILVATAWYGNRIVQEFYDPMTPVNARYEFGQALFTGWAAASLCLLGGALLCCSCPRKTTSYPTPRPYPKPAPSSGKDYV
Method: CLDN1 expression was knocked down using Dharmacon On-Target Plus SMARTpool Human CLDN1 siRNA (Thermo Scientific) according to the manufacturer's protocol. SW620 cells were plated overnight on coverslips in a 12-well plate at 0.2×10^6 cells/mL. The following day, cells were transfected with 3 μL DharmaFECT1 and either 25 nM CLDN1 or control siRNA. After 72 h, transfected cells were analyzed for CLDN1 expression through immunocytochemistry, a peptide binding study, or a Western blot of the cell lysate. For the immunocytochemistry experiment, cells were fixed with ice-cold methanol for 20 minutes at −20° C., blocked for 1 h at RT with PBS+2% BSA, stained with anti-human CLDN1 antibody at 5 μg/mL for 1 h at RT, then with goat anti-Rabbit AF488 (1:500) for 1 h at RT before being mounted on slides with DAPI with Prolong Gold. siRNA-transfected cells were also stained with 5 μM RTS-Cy5.5 or SPT-Cy5.5 for 30 minutes at 4° C., fixed with 4% PFA for 10 minutes at RT, then mounted on slides. Simultaneously, transfected cells were lysed with RIPA buffer containing Roche Mini-Complete EDTA-free Protease Inhibitor for 10 minutes on ice, collected and spun at 20,000×g for 10 minutes at 4° C. Supernatant was saved, total protein concentration quantified via a BCA assay, and 10 ug protein of each sample run on a Novex 4-20% 1.5 mm protein gel before transferring to a PVDF membrane. The membrane was blocked with PBST+5% non-fat milk for 1 h at 4° C., stained with either rabbit anti-CLDN1 Ab or mouse anti-tubulin Ab at 4° C. overnight, then with anti-rabbit HRP (1:500, for CLDN1) or anti-mouse HRP (1:500, for tubulin) for 1 h at RT before developing.
The specificity of peptide binding was validated on siRNA knockdown. […] These cells were transfected with siRNA to knockdown cell surface expression of claudin-1. […] The fluorescence intensities (mean±std) are shown (FIG. 2H). […] Given the experimental design and mean-squared-errors shown in FIG. 2H, with triplicate slides we have 98% power to obtain P<0.01 for interactions that show a 3-fold difference of differences.

signal for siCL versus siCLDN1 cells ([3]; SW620 cells, control siRNA versus CLDN1 siRNA, 3 replicate slides): 10.5 fold-change
binding to the surface of SW620 cells ([3]; confocal microscopy): strong binding
Substance: RTS*-Cy5.5: RTSPSSR labeled at the C-terminus with Cy5.5 via a GGGSK linker
Kd [1]: 42 nM
time corresponding to association time constant [2]: < 1.2 min
apparent association time constant k ([2]; 2-15 min): 0.83 min⁻¹
